Where two headings read alike, the source gives them in different places.
Legend:
[1] = tested on: beta amyloid production; assay: Repressor Release Assay (RRA); format: cell-based; settings: for fold induction at 10 µg/mL / APPI Fold Increase / APPI % of Example #98: Conc 10 μg/ml; for fold induction at 10 µg/mL / fold induction at 20 µg/mL / fold induction at 3 µg/mL: read-out: APPI Fold Increase; for fold induction at 20 µg/mL: Conc 20 μg/ml; for APPI % of Example #98: relative to Example 98; for fold induction at 3 µg/mL: Conc 3 μg/ml
Procedure: CHO-K1 cells were cultured in whole DMEM media (DMEM—High Glucose with 10% fetal bovine serum, 1% Non-essential Amino Acids, and 1% Penicillin-Streptomycin) at 37° C. with 5% CO2. Two million cells were plated into 10-cm dishes 24 hrs prior to transfection.
Transient transfections were completed as recommended by Gibco BRL using their Lipofectamine Plus system. First, 6 μg of pRSVO-luc and 6 μg of APP-lacI construct DNA were added to 460 μL Opti-Mem transfection media and incubated with 30 μL Plus reagent for 15 minutes. Then, a lipid mixture of 40 μL Lipofectamine reagent and 460 μL Opti-Mem transfection media was incubated with the DNA-Plus reagent mixture for 15 minutes. During the DNA-lipid incubation, the CHO-K1 cells were washed once and covered in 5.0 mL DMEM media without Penicillin-Streptomycin. The DNA-lipid preparation was then layered onto these cells and incubated at 37° C. overnight.
[…] transfected cells per well (100 μL total volume) were plated into sterile, opaque Packard 96-well Culture-Plates in clear DMEM whole media (DMEM—without phenol red) and incubated at 37° C. with 5% CO2 for 3-5 hours.
Compounds were diluted using two different protocols; one protocol was used for compounds supplied neat (weighed powder in vial) and the other protocol was used for compounds supplied in solution (20 mM in DMSO in 96-well plates). For both protocols, 25 mM Hepes and 25 mM Hepes/1% DMSO were prepared fresh to be used as diluent. The Hepes/DMSO was used as the diluent control on all experimental plates.
The following table depicts the steps for compound dilution (please note that the last step was the addition of compound to cells/media in tissue culture plate).
Because some compounds were present in 96-well format at 20 mM, the following represents the protocol for their dilution (note that an average molecular weight of these compounds was used to calculate these dilutions and as above, the last step was the addition of compound to cells/media in tissue culture plate).
Once the compounds were diluted, they were applied in duplicate on cells in tissue culture plates (prepared above). Cells were incubated with compound at 37° C. with 5% CO2 for an additional 36-48 hours.
Luciferase assays (LucLite reagent, Packard) were performed and were read on a Packard TopCount instrument. Media was removed from each 96-well plate and replaced with 100 μL PBS per well (with Mg^2+ and Ca^2+). An equal volume (100 μL) of the LucLite lysis/substrate buffer was added to each well and the plates were sealed and mixed in the dark on a rotary shaker for 15-30 minutes at room temperature. Luciferase readings were then taken on the TopCount instrument. Measurements were expressed as relative light units (RLU) and are calculated and analyzed in MS Excel as follows: […]

[2] = tested on: CHO-K1 cells; assay: Toxicity in RRA (loss of luciferase signal); settings: toxicity = loss of signal (<0.75 fold increase)
Procedure: The beta amyloid inhibitory activity of the compounds of the present invention was determined using the Repressor Release Assay (RRA).
“Fold Increase” refers to the amount of luciferase activity (measured in relative light units) over diluent control. “SEM” refers to the standard error of the mean for fold increase.

[3] = luciferase activity over diluent control
[4] = luciferase activity (RLU) over diluent control
[5] = Conc 20 μg/ml, 1=non-toxic, 0=toxic

CCCCC(O)[C@@H](NS(=O)(=O)c1ccccc1F)[C@@H](C)CC (stereo partly drawn) [Example 205, 2-fluoro-N-{(1S)-2-hydroxy-1-[(1S)-1-methylpropyl]hexyl}benzenesulfonamide]
fold induction at 10 µg/mL [1, 3]: 1.72 | (%)APPI Toxicity ([2]; Conc 10 μg/ml): 1 (1=non-toxic)

CCC[C@H](CC(C)C)[C@@H](CO)NS(=O)(=O)c1ccc(Cl)cc1 [Example 56, 4-chloro-N-[(1S,2R)-1-(hydroxymethyl)-4-methyl-2-propylpentyl]benzenesulfonamide]
fold induction at 20 µg/mL [1, 4]: 3.6 | (%)APPI Toxicity [2, 5]: 1 (1=non-toxic)

C=CCC(O)(CC=C)[C@@H](NS(=O)(=O)c1cccc(Cl)c1)[C@@H](C)CC [Example 254, N-{(1S)-2-allyl-2-hydroxy-1-[(1S)-1-methylpropyl]-4-pentenyl}-3-chloro benzenesulfonamide]
APPI Fold Increase [1, 3]: 1.93 fold | APPI % of Example #98 [1]: 71.92% | (%)APPI Toxicity ([2]; Conc 10 μg/ml): 1 (1=non-toxic)

CC[C@H](C)[C@H](NS(=O)(=O)c1ccc(F)cc1)C(O)c1ccc(SC)cc1 (stereo partly drawn) [Example 142, 4-fluoro-N-((1S,2 S)-1-{hydroxy[4-(methylsulfanyl)phenyl]methyl}-2-methylbutyl)benzenesulfonamide]
fold induction at 10 µg/mL [1, 3]: 2.71 | (%)APPI Toxicity ([2]; Conc 10 μg/ml): 1 (1=non-toxic)

CC[C@H](C)[C@H](NS(=O)(=O)c1ccc(Br)cc1)C(O)CCC1OCCCO1 (stereo partly drawn) [Example 160, 4-bromo-N-{(1S)-4-(1,3-dioxan-2-yl)-2-hydroxy-1-[(1S)-1-methylpropyl]butyl} benzenesulfonamide]
APPI Fold Increase [1, 3]: 1.66 fold | APPI % of Example #98 [1]: 73.83% | (%)APPI Toxicity ([2]; Conc 10 μg/ml): 1 (1=non-toxic)

CC[C@@H](CO)NS(=O)(=O)c1cccc(Cl)c1 [Example 108, 3-chloro-N-[(1S)-1-(hydroxymethyl)propyl]benzene sulfonamide]
fold induction at 3 µg/mL [1, 3]: 1.66 | (%)APPI Toxicity ([2]; Conc 3 μg/ml): 1 (1=non-toxic)

CC[C@H](C)[C@@H](CO)NS(=O)(=O)c1cc(Cl)cc(Cl)c1 [Example 8, 3,5-dichloro-N-[(1S,2S)-1-(hydroxymethyl)-2-methylbutyl]benzenesulfonamide]
fold induction at 20 µg/mL [1, 3]: 2 | (%)APPI Toxicity ([2]; Conc 20 μg/ml): 1 (1=non-toxic)

CCCCCCC(O)(CCCCCC)[C@@H](NS(=O)(=O)c1ccc(Cl)cc1)[C@@H](C)CC [Example 224, 4-chloro-N-{(1S)-2-hexyl-2-hydroxy-1-[(1S)-1-methylpropyl]octyl}benzenesulfonamide]
fold induction at 10 µg/mL [1, 3]: 2.22 | (%)APPI Toxicity ([2]; Conc 10 μg/ml): 1 (1=non-toxic)

CC[C@H](C)[C@H](NS(=O)(=O)c1ccc(Cl)cc1)C(O)(CC)CC [Example 229, 4-chloro-N-{(1S)-2-ethyl-2-hydroxy-1-[(1S)-1-methylpropyl]butyl}benzenesulfonamide]
fold induction at 10 µg/mL [1, 3]: 1.52 | (%)APPI Toxicity ([2]; Conc 10 μg/ml): 1 (1=non-toxic)

CC(C)C[C@@H](CO)NS(=O)(=O)c1ccccc1F [Example 109, 2-fluoro-N-[(1S)-1-(hydroxymethyl)-3-methylbutyl]benzenesulfonamide]
fold induction at 20 µg/mL [1, 3]: 1.9 | (%)APPI Toxicity ([2]; Conc 20 μg/ml): 1 (1=non-toxic)

C=CCCC(O)[C@@H](NS(=O)(=O)c1ccc(Cl)cc1)[C@@H](C)CC (stereo partly drawn) [Example 180, 4-chloro-N-{(1S)-2-hydroxy-1-[(1S)-1-methylpropyl]-5-hexenyl}benzenesulfonamide]
fold induction at 10 µg/mL [1, 3]: 1.69 | (%)APPI Toxicity ([2]; Conc 10 μg/ml): 1 (1=non-toxic)

O=S(=O)(N[C@H](CO)CC1CCCCC1)c1ccccc1F [Example 115, N-[(1S)-2-cyclohexyl-1-(hydroxymethyl)ethyl]-2-fluorobenzenesulfonamide]
fold induction at 20 µg/mL [1, 3]: 1.8 | (%)APPI Toxicity ([2]; Conc 20 μg/ml): 1 (1=non-toxic)

CC[C@H](C)[C@H](NS(=O)(=O)c1ccc(Cl)cc1)C(O)c1cccc2ccccc12 (stereo partly drawn) [Example 184, 4-chloro-N-{(1S,2S)-1-[hydroxy(1-naphthyl)methyl]-2-methylbutyl}benzenesulfonamide]
fold induction at 10 µg/mL [1, 3]: 1.7 | (%)APPI Toxicity ([2]; Conc 10 μg/ml): 1 (1=non-toxic)

C=CCC(O)[C@@H](NS(=O)(=O)c1ccc(F)cc1)[C@@H](C)CC (stereo partly drawn) [Example 134, 4-fluoro-N-{(1S)-2-hydroxy-1-[(1S)-1-methylpropyl]-4-pentenyl}benzenesulfonamide]
fold induction at 3 µg/mL [1, 3]: 1.5 | fold induction at 10 µg/mL [1, 3]: 3 | (%)APPI Toxicity ([2]; Conc 3 μg/ml): 1 (1=non-toxic) | (%)APPI Toxicity ([2]; Conc 10 μg/ml): 1 (1=non-toxic)

CC(C)C[C@@H](c1ccccc1)[C@@H](CO)NS(=O)(=O)c1ccc(Cl)cc1 [Example 64, 4-chloro-N-[(1S,2S)-1-(hydroxymethyl)-4-methyl-2-phenylpentyl]benzenesulfonamide]
fold induction at 20 µg/mL [1, 4]: 1.7 | (%)APPI Toxicity [2, 5]: 1 (1=non-toxic)

CCC(CC)[C@@H](CO)NS(=O)(=O)c1ccc(Cl)cc1 [Example 52, 4-chloro-N-[(1S)-2-ethyl-1-(hydroxymethyl)butyl]benzenesulfonamide]
fold induction at 20 µg/mL [1, 4]: 6.2 | (%)APPI Toxicity [2, 5]: 1 (1=non-toxic)

CC[C@H](C)[C@H](NS(=O)(=O)c1ccc(Br)cc1)C(O)(CC)CC [Example 217, 4-bromo-N-{(1S)-2-ethyl-2-hydroxy-1-[(1S)-1-methylpropyl]butyl}benzenesulfonamide]
fold induction at 10 µg/mL [1, 3]: 1.68 | (%)APPI Toxicity ([2]; Conc 10 μg/ml): 1 (1=non-toxic)

CC[C@H](C)[C@H](NS(=O)(=O)c1ccc(F)cc1)C(O)(C(C)C)C(C)C [Example 239, 4-fluoro-N-{(1S)-2-hydroxy-2-isopropyl-3-methyl-1-[(1S)-1-methylpropyl]butyl}benzenesulfonamide]
fold induction at 10 µg/mL [1, 3]: 1.54 | (%)APPI Toxicity ([2]; Conc 10 μg/ml): 1 (1=non-toxic)

O=S(=O)(NC1(CO)CCCC1)c1ccccc1F [Example 114, 2-fluoro-N-[1-(hydroxymethyl)cyclopentyl]benzenesulfonamide]
fold induction at 20 µg/mL [1, 3]: 1.5 | (%)APPI Toxicity ([2]; Conc 20 μg/ml): 1 (1=non-toxic)

CC[C@H](C)[C@H](NS(=O)(=O)c1ccc(Br)cc1)C(O)c1ccc(OC)cc1 (stereo partly drawn) [Example 158, 4-bromo-N-{(11 S,2S)-1-[hydroxy(4-methoxyphenyl)methyl]-2-methylbutyl}benzenesulfonamide]
APPI Fold Increase [1, 3]: 2.28 fold | APPI % of Example #98 [1]: 101.49% | (%)APPI Toxicity ([2]; Conc 10 μg/ml): 1 (1=non-toxic)

C=CCCC(O)(CCC=C)[C@@H](NS(=O)(=O)c1ccc(Cl)cc1)[C@@H](C)CC [Example 233, N-{(1S)-2-(3-butenyl)-2-hydroxy-1-[(1S)-1-methylpropyl]-5-hexenyl}-4-chlorobenzenesulfonamide]
fold induction at 10 µg/mL [1, 3]: 6.67 | (%)APPI Toxicity ([2]; Conc 10 μg/ml): 1 (1=non-toxic)

CC[C@H](C)[C@H](NS(=O)(=O)c1ccc(Br)cc1)C(C)(C)O [Example 211]
fold induction at 10 µg/mL [1, 3]: 2.09 | (%)APPI Toxicity ([2]; Conc 10 μg/ml): 1 (1=non-toxic)

C/C=C(\C)C(O)[C@@H](NS(=O)(=O)c1ccc(Br)cc1)[C@@H](C)CC (stereo partly drawn) [Example 159, 4-bromo-N-{(1S,3E)-2-hydroxy-3-methyl-1-[(1S)-1-methylpropyl]-3-pentenyl}benzenesulfonamide]
fold induction at 10 µg/mL [1, 3]: 2.11 | (%)APPI Toxicity ([2]; Conc 10 μg/ml): 1 (1=non-toxic)

CC[C@H](C)[C@@H](CO)NS(=O)(=O)c1c(C)cccc1Cl [Example 7, 2-chloro-N-[(1S,2S)-1-(hydroxymethyl)-2-methylbutyl]-6-methylbenzenesulfonamide]
fold induction at 20 µg/mL [1, 3]: 1.6 | (%)APPI Toxicity ([2]; Conc 20 μg/ml): 1 (1=non-toxic)

CC[C@H](C)[C@H](NS(=O)(=O)c1ccc(F)cc1)C(O)C=C(C)C (stereo partly drawn) [Example 137, 4-fluoro-N-{(1S)-2-hydroxy-4-methyl 1-[(1S)-1-methylpropyl]-3-pentenyl}benzenesulfonamide]
fold induction at 10 µg/mL [1, 3]: 1.61 | (%)APPI Toxicity ([2]; Conc 10 μg/ml): 1 (1=non-toxic)

CC[C@H](C)[C@@H](CO)NS(=O)(=O)c1cc(Br)ccc1Br [Example 21, 2,5-dibromo-N-[(1S,2S)-1-(hydroxymethyl)-2-methylbutyl]benzenesulfonamide]
fold induction at 20 µg/mL [1, 3]: 1.6 | (%)APPI Toxicity ([2]; Conc 20 μg/ml): 1 (1=non-toxic)

CC[C@H](CC(C)C)[C@@H](CO)NS(=O)(=O)c1ccc(Br)cc1 [Example 73, 4-bromo-N-[(1S,2R)-2-ethyl-1-(hydroxymethyl)-4-methylpentyl]benzenesulfonamide]
fold induction at 20 µg/mL [1, 4]: 5.4 | (%)APPI Toxicity [2, 5]: 1 (1=non-toxic)
